We go through three compounds from patent US20040162263A1, “Pharmaceutical formulations targeting specific regions of the gastrointesinal tract” (priority 2002, published 2004).

For orientation: bioavailability means dose-corrected exposure relative to a reference, in per cent. The term AUC(0-inf) denotes total exposure, with the tail of the curve extrapolated. Low readings indicate less exposure, high ones more exposure.

For one data set, the system named is L1210 leukemic mice. As to conditions: cited from earlier work.
For data set [1], the system named is fetal hemoglobin levels (Hb F). As to conditions: orally 8 mg/kg, repeatedly phlebotomized baboon; cited from earlier work.
Data set [2] in a line: Physico-chemical properties of pentostatin (solubility, stability). Type of data set: physicochemical.
Another data set can be described thus: in vivo. As to conditions: dog. Here is the method: Pentostatin was administered to IVAP beagle dogs (n=3) at 0.2 mg/kg via intravenous, oral and through previously implanted intestinal ports (jejunum, ileum and colon). Extravascular administration of pentostatin was done in saline water for infusion or in a pH=7 phosphate buffer solution to control the intestinal pH. Blood samples were taken systemic and through a port in the portal vein, plasma separated and kept frozen at −20° C. until analysis.
Six adult male beagle dogs (obtained from Summit Ridge Farms, Susquehanna, Pa.; between the ages of 1 and 5 years and weighed between 9 and 16 kg) were prepared with indwelling catheters in the Upper and Lower Small Intestines (USI and LSI), Colon (IC) and Portal Vein (PV) and were dosed with pentostatin at 0.2 mg/kg. The drug formulation was delivered either orally, intraveneously or, in most cases, through the indwelling ports and blood samples were drawn to determine the pharmacokinetics of each permutation. Systemic blood samples were collected from acutely placed IV catheters in the brachial vein, while PV samples were collected through the indwelling port and catheter. All blood samples were spun down, the plasma decanted, frozen and stored at −70 deg Celsius before subject to analysis.
The IVAP dog is prepared with indwelling catheters attached to subcutaneous ports (Titanium Vascular Access Portsg from Access Technologies in Skokie, Ill.) for delivery of drug formulations directly to various parts of the Gastrointestinal Tract. […] In addition, collecting blood samples directly from the portal vein during parenteral as well as oral and intestinal delivery can be combined with direct portal delivery studies to tweeze apart the first pass effects of both liver and intestinal cell enzymatic degradation effects on the drug being tested. Next, delivery of various formulations under different conditions can help in the development of effective oral delivery systems. Finally, delivery of absorption enhancers at various intervals, prior to the delivery of the drug, can be used to determine the recovery time of intestinal wall integrity following dosing with a particular formulation.
IVAP dogs are fitted with three intestinal catheters, in addition to a portal vein catheter. Following induction of general anesthesia, the animal is placed in a supine position, scrubbed and prepped with betadine solution and draped under sterile conditions. A vertical midline incision is made through the skin and the abdominal cavity is entered. A 5F Heparin Coated CBAS® tubing, is inserted into the portal vein and secured with a purse string of 7-0 prolene suture. A small square of Surgicel® is placed over the insertion site and the fascia is closed over it to prevent leakage or dislodging of the tubing. The Upper Small Intestine (USI) port tubing is inserted 10 cm distal to the ligament of Treitz. The small bowel is then measured from the pyloric sphincter to the ileocecal valve and the Lower Small Intestine (LSI) port tubing is inserted one third of the way back from the ileocecal valve. The colon tubing is inserted 10 cm distal to the ileocecal valve (Colon). 7F Sylastic® tubing is used for each intestinal catheter. […] The tubings are secured with a silk “purse-string” suture and the modified Witzel Tunnel technique. After placement of the tubes, the bowel is secured to the abdominal wall and the proximal ends of the tubings are tunneled out of the abdominal cavity and into a subcutaneous pocket on the caudal aspect of the right chest, along with the PV catheter. The abdominal incision is closed in two layers. The Linea Alba is approximated with 0 Vicryl and the skin is closed with 2-0 Vicryl.
In case of IV administration, the drug is dissolved in normal sterile saline to a concentration of 1 mg/ml and is passed through a […] sterilizing filter prior to administration to the brachial vein.

A short description of data set [3]: Physico-chemical properties of decitabine (solubility, stability). It counts as physicochemical. As to conditions: room temp.

Consider `Nc1ncn([C@@H]2O[C@H](CO)[C@@H](O)[C@H]2O)c(=O)n1` [5-azacytidine], for which, in the data set on L1210 leukemic mice, the “activity parenteral versus oral” value was “more active when administered parenterally than orally”. Further, the “elevation in the fetal hemoglobin levels (Hb F)” value in data set [1] was “no elevation”.
With `OC[C@H]1O[C@@H](n2cnc3c2NC=NC[C@H]3O)C[C@@H]1O` [pentostatin, 2′-deoxycoformycin], the “solubility in ethanol and methanol” value in data set [2] is “slightly soluble”. The “stability in aqueous solution” value in data set [2] (1 mg/ml) is “most stable at pH 7 or above and degrade quickly at pHs lower than 4”. Besides, in data set [2] (37° C., 75% RH), the “solid stability at high temperature and humidity” value was “loses the potency”. Besides, in data set [2] (at various pHs), the solubility in water result is “freely soluble”. Moreover, the hygroscopicity entry in data set [2] (crystalline form) is reported as “not hygroscopic”. The solid stable entry in data set [2] (up to temperatures of 45° C.) was “at least 12 months”. Also, the “AUC2/AUC1 (portal vein)” value in the data set “in vivo” (po) is recorded as 1.50. Also, the “Relative bioavailability in reference to oral” value in the data set “in vivo” (male, beagle) is on record as 620%. Also, the “Ratio Treat2/Treat1 of systemic bioavailability” value in the data set “in vivo” (male, beagle, po) turned out to be 0.51. The “bioavailability % change, AVERAGE” value in “in vivo” (male, beagle, po) was −26%. Besides, the “decrease in the systemic pentostatin bioavailability” value in “in vivo” (male, beagle, po) was found to be 50%. In “in vivo” (male, beagle, po, 0.2 mg/kg), the “Mean systemic AUC0-inf” value was 10,425 ± 6,652 (64) ng × min/ml. Besides, the bioavailability in the data set “in vivo” (male, beagle, po, 0.2 mg/kg, Individual bioavailability % change) is 5%; in “in vivo” (male, beagle, po, 0.2 mg/kg, Relative bioavailability calculated in portal vein), 100%; in the data set “in vivo” (male, beagle, po, 0.2 mg/kg, Relative bioavailability in reference to oral), 100%; in the data set “in vivo” (male, beagle, po, 0.2 mg/kg, pH 7, systemic bioavailability (F), mean) it was 14.3%; in “in vivo” (male, beagle, po, 0.2 mg/kg, systemic bioavailability (F), mean) it was 28%. Moreover, the AUC(0-inf) in the data set “in vivo” (male, beagle, po, 0.2 mg/kg, Mean systemic AUC0-inf) was 340 ng·h/mL.
As to `Nc1ncn([C@H]2C[C@H](O)[C@@H](CO)O2)c(=O)n1` [Decitabine monohydrate], the stability result in data set [3] was “stable”.
